Source: publication PMC10317891, “Fibroblast activation protein targeted radiotherapy induces an immunogenic tumor microenvironment and enhances the efficacy of PD-1 immune checkpoint inhibition” (European Journal of Nuclear Medicine and Molecular Imaging, 2023)
Several values for one entry are separate records, joined by “and”; a condition that tells them apart may be missing. Identical values can stand only once. Like-named read-outs stand apart in the source and are kept apart here. Numbered stars: 1 amine (or outer) side, 2 acyl side, 3 side chain; on linkers, the order of the positions; unused ones are H or OH. Bridge positions count the residues as written; N and C are the ends. Peptide text beside a SMILES is read from it. * marks the point of attachment. X1 = O=C(O)CN1CCN(CC(=O)O)CCN(CC(=O)N2CCN(Cc3cc(C[*:1])cc(C[*:2])c3)CC2)CCN(CC(=O)O)CC1; Hexanoyl = CCCCCC(=O)*

Experiments:
[1] = In vivo biodistribution by SPECT/CT imaging; design: species or system C57BL/6 mice; conditions: female, C57BL/6, mouse, total radioactivity; for tissue uptake at 3 h / tissue uptake at 24 h / tissue uptake at 48 h / tissue uptake at 72 h: mean ± SD, n = 6, SD
Description: All animal experiments were carried out under licenses approved by the respective authorities and in compliance with guidelines on animal welfare. […] Animals were anesthetized (isoflurane 3% in 100% O2) and eye lubricants were applied before each scan. Study was performed at Minerva Imaging ApS (Denmark).
Imaging and image analysis were performed as described. During the scan, mice were kept under isoflurane anesthesia, and body temperature was maintained under warm air. The following acquisition parameters were used for the respective imaging modality.
For quantification, VivoQuant (InviCRO) was used to draw regions of interest (ROIs) in relevant tissues, with a ROI drawn over the left ventricle of the heart to serve as blood pool surrogate. Percentage injected dose per gram of tissue (%ID/g) was calculated from the tissue-associated radioactivity determined in the ROI, the volume of the ROI, and the decay-corrected dose entered during preprocessing of the images in VivoQuant.

MCA205-mFAP tumors = assay: Tumor mass in pharmacodynamic study; type: in vivo, C57BL/6 mice; conditions: day 13 pi; n = 8 per group; vehicle 1433 mg
Description: (§1) Female C57BL/6 mice were subcutaneously implanted with 1 × 10^6 MCA205-mFAP cells (n = 12 per group). […] Treatment began when the MTV was 94 mm^3 (mean body weight 20.4 g). […] Treatment began when MTV was 162 mm^3 (mean body weight 20.8 g) and tumors were collected at days 8 and 13 pi for analysis.

[2] = system: immune gene expression in MCA205-mFAP tumors; assay: Tumor RNA expression analysis (nCounter PanCancer Immune Profiling panel); type: in vivo, C57BL/6 mice
Text: Total RNA was isolated from tumors using the PureLink RNA Mini kit (Thermo Fisher Scientific) following the manufacturer’s protocol. The nCounter PanCancer Immune Profiling (mouse) panel (NanoString Technologies) was used to measure the expression in the RNA samples. Following hybridization, transcripts were quantitated and analyzed using the nCounter Digital Analyzer and nCounter Advanced Analysis Software v4.0 (NanoString Technologies). Data were normalized for assay efficiency by multiplying each count by a positive normalization factor obtained for each sample. For differential expression analysis, the Benjamini-Yekutieli statistical analysis, which calculates false discovery rate, was employed to generate an adjusted p-value.

[3] = system: MCA205-mFAP syngeneic tumor model; assay: Tumor in vivo efficacy study
Description: Female C57BL/6 mice were subcutaneously implanted with 1 × 10^6 MCA205-mFAP cells (n = 12 per group). […] Treatment began when the MTV was 94 mm^3 (mean body weight 20.4 g).
Calculation of tumor growth inhibition (TGI). Percent TGI is defined as the difference between the mean tumor volume of the test group and the control group. TGI values are calculated as follows:
Tᵢ is the mean tumor volume of a treatment group on a given day i, T₀ is the mean tumor volume of the treatment group on the day treatment started (day 0), Vᵢ is the mean tumor volume of the vehicle control group on the same day as Tᵢ, and V₀ is the mean tumor volume of the vehicle group on the initial day of treatment (day 0).
Calculation of body weight loss. Relative body weight (RBW) was calculated as follows:
BWᵢ is the mean body weight of one group on a given day i, BW0 is the mean body weight of the same group on the day treatment started (day 0).
Statistical analysis. For the evaluation of the statistical significance of antitumor efficacy, body weight change, and immune profiling, two-way ANOVA with multiple comparisons was performed using GraphPad Prism (Version 8.4).
All P values <0.05 were considered statistically significant.

[4] = system: immune infiltrates of MCA205-mFAP tumors; assay: Ex vivo immune profiling of tumors by flow cytometry; conditions: for CD8^+ (%, CD45^+) / CD86^+ on TAM (MFI) / CD127^+CD8^+ (%, CD8^+) / CD127 on CD127^+CD8^+ (MFI) / T cells (%, CD45^+) / TAM (%, CD45^+) / CD45^+ (%, total): mean ± SEM; for CD8^+ (%, CD45^+) / CD86^+ on TAM (MFI) / CD127^+CD8^+ (%, CD8^+) / CD127 on CD127^+CD8^+ (MFI) / T cells (%, CD45^+) / TAM (%, CD45^+) / CD4+ (%, CD45+) / CD25+CD4+ (%, CD4+) / CD25+CD8+ (%, CD8+) / CD25 on CD4+ (MFI) / CD25 on CD25+CD8+ (MFI) / CD86+ TAMs (%, TAMs) / CD127+CD4+ (%, CD4+) / CD127 on CD4+ (MFI) / CD45^+ (%, total): n = 8 per group; for CD45^+ (%, total): tumor flow cytometry;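 on all read-outs here: subcutaneous MCA205-mFAP tumors in female C57BL/6 mice, treated from a mean tumor volume of 162 mm^3, excised on day 8 or 13 pi and profiled by flow cytometry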
Description: as §1
Tumors were dissected into small pieces, digested using a tumor dissociation enzyme mix (Miltenyi Biotec) at 37 °C for 40 min in a shaking water bath, processed through 70 μM cell strainers and counted (NucleoCounter NC-202, Chemotec). Cells (10 × 10^6) were Fc-blocked (2.4G2, BD Biosciences) and stained in FACS buffer (PBS with 0.5% BSA, 0.1% NaN3 and 2 mM EDTA) with Brilliant Stain Buffer Plus (BD Biosciences) for surface markers CD45 (30-F11), CD3 (145-2C11), CD4 (RM4-5), CD8 (53–6.7), CD25 (PC61), CD127 (SB/199), Ly6g (1A8), Ly6c (HK1.4), CD11b (M1/70), CD86 (GL1), CD314 (CX5), F4/80 (T45-2342), and eFlour 780 fixable viability dye (Thermo Fisher Scientific) for 30 min on ice. Anti-Ly6c was purchased from Biolegend, while remaining antibodies were from BD Biosciences. Samples were washed and acquired on the FACSymphony A3 and analyzed in FlowJo v10.8.1 (BD Biosciences, Supplementary Fig. S1).
PMN-MDSC CD45+ CD11b+ Ly6c+ Ly6g+
Mo-MDSC CD45+ CD11b+ Ly6c HighLy6g-
Gating strategy for immune profiling of MCA205-mFAP tumors by flow
cytometry. Representative bivariate density plots show gating strategy to identify the PMN-MDSC, Mo-
MDSC, TAM and T-cells in the MCA205-mFAP tumors (A). Marker sets used to identify each immune
cell type are listed (B).

[5] = system: T cell infiltrates of MCA205-mFAP tumors; assay: IHC quantification of CD8+ and CD4+ T cells in tumors
Description: Tumors were formalin-fixed and paraffin-embedded and processed into 4 μm tissue sections. Tumor sections were stained for FAP (EPR20021, Abcam), CD8 (D4W2Z, Cell Signaling), and CD4 (EPR19514, Abcam) on a Bond Rx autostainer (Leica Biosystems) with Bond Polymer Refine Detection (Leica Biosystems) according to the manufacturer's protocol. After staining, sections were dehydrated and film cover slipped using a TissueTek-Prisma and Coverslipper (Sakura). Whole slide scanning (40x) was performed on an Aperio AT2 (Leica Biosystems). Image analysis and quantification was performed on Aperio ImageScope v12.1 (Leica Biosystems) or QuPath v0.1.2 [18].
A tissue slide containing both intrinsic positive staining structures was included in every staining run. For FAP H-score assessment, the staining intensity was scored as 0, 1, 2, or 3 corresponding to the presence of negative, weak, intermediate, and strong brown staining, respectively. The average percentage positive was calculated for each intensity category and the following calculation was applied: H-score = (% of cells stained at intensity category 1 x 1) + (% of cells stained at intensity category 2 x 2) + (% of cells stained at intensity category 3 x 3). Image analysis scoring was previously validated against scoring performed by a pathologist. For CD4 and CD8 percentage assessment, QuPath positive cell detection function was used.

[6] = day 8 pi, differential expression versus vehicle, 770-plex panel

`CCCCCC(=O)N[C@H]1CSCc2cc(cc(CN3CCN(C(=O)CN4CCN(CC(=O)O)CCN(CC(=O)O)CCN(CC(=O)O)CC4)CC3)c2)CSC[C@@H](C(=O)N[C@@H](CC(=O)O)C(N)=O)NC(=O)[C@H](Cc2ccccc2)NC(=O)[C@H](CCC(N)=O)NC(=O)[C@H]([C@@H](C)O)NC(=O)[C@@H]2CCCN2C(=O)[C@@H]2CCCN2C1=O` [^177Lu-FAP-2287, metal not drawn] (Hexanoyl-CPPTQFCD-NH2; linker 1-7 via X1; N-terminus and C-terminus assumed) gave a tissue uptake at 3 h ([1]; blood pool surrogate (left ventricle of the heart), iv, 30 MBq, 3 h p.i., ROI over left ventricle of the heart, read-out: Blood Pool Surrogate %ID/g) of 0.5 %ID/g, a tissue uptake at 24 h ([1]; blood pool surrogate (left ventricle of the heart), iv, 30 MBq, 24 h p.i., ROI over left ventricle of the heart, read-out: Blood Pool Surrogate %ID/g) of 0.1 %ID/g and a tissue uptake at 48 h ([1]; blood pool surrogate (left ventricle of the heart), iv, 30 MBq, 48 h p.i., ROI over left ventricle of the heart, read-out: Blood Pool Surrogate %ID/g) of 0.1 %ID/g. It also gave a tissue uptake at 72 h ([1]; blood pool surrogate (left ventricle of the heart), iv, 30 MBq, 72 h p.i., ROI over left ventricle of the heart, read-out: Blood Pool Surrogate %ID/g) of 0.1 %ID/g, a tissue uptake at 3 h ([1]; kidney, 3 h p.i., 30 MBq iv, read-out: Kidney %ID/g) of 2 ± 0.1 %ID/g and a tissue uptake at 24 h ([1]; kidney, 24 h p.i., 30 MBq iv, read-out: Kidney %ID/g) of 1.1 ± 0.1 %ID/g. The tissue uptake at 48 h ([1]; kidney, 48 h p.i., 30 MBq iv, read-out: Kidney %ID/g) was 0.9 %ID/g, the tissue uptake at 72 h ([1]; kidney, 72 h p.i., 30 MBq iv, read-out: Kidney %ID/g) was 0.6 ± 0.1 %ID/g and the tissue uptake at 3 h ([1]; liver, 3 h p.i., 30 MBq iv, read-out: Liver %ID/g) was 0.5 %ID/g. For the same compound, the tissue uptake at 24 h ([1]; liver, 24 h p.i., 30 MBq iv, read-out: Liver %ID/g) was 0.3 %ID/g, the tissue uptake at 48 h ([1]; liver, 48 h p.i., 30 MBq iv, read-out: Liver %ID/g) was 0.3 %ID/g and the tissue uptake at 72 h ([1]; liver, 72 h p.i., 30 MBq iv, read-out: Liver %ID/g) was 0.2 %ID/g. The tissue uptake at 3 h ([1]; tumor, 3 h p.i., 30 MBq (1 nmol) iv, SPECT/CT, read-out: Tumor %ID/g) was 8.2 ± 0.5 %ID/g, the tissue uptake at 24 h ([1]; tumor, 24 h p.i., 30 MBq (1 nmol) iv, SPECT/CT, read-out: Tumor %ID/g) was 2.9 ± 0.2 %ID/g and the tissue uptake at 48 h ([1]; tumor, 48 h p.i., 30 MBq (1 nmol) iv, SPECT/CT, read-out: Tumor %ID/g) was 1.6 ± 0.1 %ID/g. The tissue uptake at 72 h ([1]; tumor, 72 h p.i., 30 MBq (1 nmol) iv, SPECT/CT, read-out: Tumor %ID/g) was 0.9 ± 0.1 %ID/g, the tissue to tissue ratio at 3 h ([1]; tumor/kidney, iv, 30 MBq, 3 h p.i., read-out: T/K ratio (tumor-to-kidney)) was 4.1 and the tissue to tissue ratio at 24 h ([1]; tumor/kidney, iv, 30 MBq, 24 h p.i., read-out: T/K ratio (tumor-to-kidney)) was 2.6. It also gave a tissue to tissue ratio at 48 h ([1]; tumor/kidney, iv, 30 MBq, 48 h p.i., read-out: T/K ratio (tumor-to-kidney)) of 1.8, a tissue to tissue ratio at 72 h ([1]; tumor/kidney, iv, 30 MBq, 72 h p.i., read-out: T/K ratio (tumor-to-kidney)) of 1.5 and a Tumor mass (MCA205-mFAP tumors) of 746 mg. The “number of gene transcripts decreased” value [2, 6] was 15 genes, the “number of genes with significantly increased RNA levels” value [2, 6] was 28 genes and the “number of day 8 differentially expressed genes still differentially expressed at day 13 pi” value ([2]; day 13 pi) was 16 genes. The “CCL5 RNA increase in tumors” value ([2]; fold versus vehicle, day not given) was 1.95 fold, the “TGI, Day 10” value ([3]; day 10 pi, versus vehicle, n = 12 per group) was 74% and the “MTV, Day 10” value ([3]; day 10 pi, 60 MBq 177Lu-FAP-2287 single iv dose and/or 10 mg/kg anti-PD-1 ip twice weekly, mean ± SEM, n = 12, vehicle 749.6 ± 91.2, SEM) was 266.5 ± 53.2 mm^3. For the same compound, the RBW at nadir ([3]; relative body weight change at nadir (Day 2), mean ± SEM, n = 12, SEM) was -1.1 ± 0.7%, the “CD8^+ (%, CD45^+)” value ([4]; Day 8 pi, SEM) was 16.9 ± 3.2% and the “CD86^+ on TAM (MFI)” value ([4]; Day 8 pi, SEM) was 3928 ± 124 MFI. The “CD127^+CD8^+ (%, CD8^+)” value ([4]; Day 8 pi, SEM) was 50.0 ± 5.3%, the “CD127 on CD127^+CD8^+ (MFI)” value ([4]; Day 8 pi, SEM) was 1011 ± 118 MFI and the “T cells (%, CD45^+)” value ([4]; Day 8 pi, SEM) was 22.9 ± 3.6%. The “TAM (%, CD45^+)” value ([4]; Day 8 pi, SEM) was 23.0 ± 1.1%, the “CD4+ (%, CD45+)” value ([4]; Day 8 pi) was 6.0 ± 0.6% and the “CD25+CD4+ (%, CD4+)” value ([4]; Day 8 pi) was 60.4 ± 1.3%. For the same compound, the “CD25+CD8+ (%, CD8+)” value ([4]; Day 8 pi) was 7.7 ± 1.1%, the “CD25 on CD4+ (MFI)” value ([4]; Day 8 pi) was 931 ± 117 MFI and the “CD25 on CD25+CD8+ (MFI)” value ([4]; Day 8 pi) was 84 ± 6 MFI. For the same compound, the “CD86+ TAMs (%, TAMs)” value ([4]; Day 8 pi) was 89.5 ± 1.7%, the “CD127+CD4+ (%, CD4+)” value ([4]; Day 8 pi) was 41.0 ± 1.8% and the “CD127 on CD4+ (MFI)” value ([4]; Day 8 pi) was 777 ± 43 MFI. For the same compound, the “CD45^+ (%, total)” value ([4]; Day 8 pi, SEM) was 23.6 ± 3.1%, the “CD8^+ (%, CD45^+)” value ([4]; Day 13 pi, SEM) was 11.9 ± 1.5% and the “CD86^+ on TAM (MFI)” value ([4]; Day 13 pi, SEM) was 4063 ± 143 MFI. For the same compound, the “CD127^+CD8^+ (%, CD8^+)” value ([4]; Day 13 pi, SEM) was 44.5 ± 3.7%, the “CD127 on CD127^+CD8^+ (MFI)” value ([4]; Day 13 pi, SEM) was 874 ± 86 MFI and the “T cells (%, CD45^+)” value ([4]; Day 13 pi, SEM) was 19.0 ± 1.5%. For the same compound, the “TAM (%, CD45^+)” value ([4]; Day 13 pi, SEM) was 39.4 ± 1.4%, the “CD4+ (%, CD45+)” value ([4]; Day 13 pi) was 7.2 ± 0.4% and the “CD25+CD4+ (%, CD4+)” value ([4]; Day 13 pi) was 64.5 ± 1.2%. The “CD25+CD8+ (%, CD8+)” value ([4]; Day 13 pi) was 5.3 ± 0.6%, the “CD25 on CD4+ (MFI)” value ([4]; Day 13 pi) was 1182 ± 80 MFI and the “CD25 on CD25+CD8+ (MFI)” value ([4]; Day 13 pi) was 70 ± 4 MFI. For the same compound, the “CD86+ TAMs (%, TAMs)” value ([4]; Day 13 pi) was 92.0 ± 1.2%, the “CD127+CD4+ (%, CD4+)” value ([4]; Day 13 pi) was 38.9 ± 2.2% and the “CD127 on CD4+ (MFI)” value ([4]; Day 13 pi) was 736 ± 51 MFI. The “CD45^+ (%, total)” value ([4]; Day 13 pi, SEM) was 21.6 ± 1.4%, the “CD86+ Mo-MDSCs (%, Mo-MDSCs)” value ([4]; mouse, in vivo) was 84.9 ± 1.2% and 82.2 ± 2.9% and the “PMN-MDSCs (%, CD45+)” value ([4]; mouse, in vivo) was 9.6 ± 3.9% and 10.0 ± 1.3%. For the same compound, the “CD86^+ on Mo-MDSC (MFI)” value ([4]; mouse, in vivo, SEM) was 3267 ± 80 MFI and 2939 ± 114 MFI, the “Mo-MDSC (%, CD45^+)” value ([4]; mouse, in vivo, SEM) was 34.9 ± 0.9% and 21.3 ± 1.3% and the “CD8^+ T cells by IHC (% of total cells)” value ([5]; day 8 pi, vehicle 4.9%) was 9.0%. For the same compound, the “CD8^+ T cells by IHC (% of total cells)” value ([5]; day 13, vehicle 4.4%) was 8.5%.
